Measurements reported in US20220119354A1, “DIAMINO-SUBSTITUTED PYRIDINES AND PYRIMIDINES AS HERBICIDES” (FMC Corporation, priority 2019, published 2022).

Legend:
Format in all cases: in vivo
[1] = tested on: foxtail, giant (Setaria faberii); assay: Test A postemergence, giant foxtail; conditions: 0 to 100 scale; for Plant response rating, Foxtail, Giant: 125 g ai/ha, 0 no effect, 100 complete control; for Foxtail, Giant plant response rating: 500 g ai/ha, 0 is no effect, 100 is complete control
Outline: (§1)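 Seeds sown in loam–sand blend received a directed soil spray of test chemical in non-phytotoxic solvent with surfactant (preemergence); postemergence plants at 2–10 cm, one- to two-leaf stage, were sprayed with the same formulation. Injury rated visually versus untreated controls after ~10 d in greenhouse, 0–100 scale.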

[2] = tested on: barnyardgrass (Echinochloa crus-galli); assay: Test A preemergence, barnyardgrass; conditions: 0 to 100 scale, 0 is no effect, 100 is complete control
Outline: as §1

[3] = tested on: ragweed (common ragweed, Ambrosia elatior); assay: Test A postemergence, ragweed; conditions: 0 to 100 scale; for Plant response rating, Ragweed: 125 g ai/ha, 0 no effect, 100 complete control; for Ragweed plant response rating: 500 g ai/ha, 0 is no effect, 100 is complete control
Outline: as §1

[4] = tested on: ryegrass, Italian (Lolium multiflorum); assay: Test A preemergence, Italian ryegrass; conditions: 0 to 100 scale, 0 is no effect, 100 is complete control
Outline: as §1

[5] = tested on: barnyardgrass (Echinochloa crus-galli); assay: Test B flooded paddy test, barnyardgrass; conditions: Flood, 250 g ai/ha, applied to paddy water, 2-leaf stage, visual evaluation after 13 to 15 d
Outline: (§2)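 Plants grown to 2-leaf stage. Compounds applied directly into paddy water flooded 3 cm above soil, with that depth kept throughout. After 13–15 d in greenhouse, visual rating versus controls on a 0–100 scale (0 no effect, 100 complete control).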

[6] = tested on: ryegrass, Italian (Lolium multiflorum); assay: Test A postemergence, Italian ryegrass; conditions: 0 to 100 scale; for Plant response rating, Ryegrass, Italian: 125 g ai/ha, 0 no effect, 100 complete control; for Ryegrass, Italian plant response rating: 500 g ai/ha, 0 is no effect, 100 is complete control
Outline: as §1

corn (Zea mays) = assay: Test A postemergence, corn; conditions: 0 to 100 scale; for Plant response rating, Corn: 125 g ai/ha, 0 no effect, 100 complete control; for Corn plant response rating: 500 g ai/ha, 0 is no effect, 100 is complete control
Outline: as §1

[7] = tested on: galium (catchweed bedstraw, Galium aparine); assay: Test A postemergence, galium; conditions: 0 to 100 scale; for Plant response rating, Galium: 125 g ai/ha, 0 no effect, 100 complete control; for Galium plant response rating: 500 g ai/ha, 0 is no effect, 100 is complete control
Outline: as §1

[8] = tested on: barnyardgrass (Echinochloa crus-galli); assay: Test A postemergence, barnyardgrass; conditions: 0 to 100 scale; for Plant response rating, Barnyardgrass: 125 g ai/ha, 0 no effect, 100 complete control; for Barnyardgrass plant response rating: 500 g ai/ha, 0 is no effect, 100 is complete control
Outline: as §1

[9] = tested on: blackgrass (Alopecurus myosuroides); assay: Test A postemergence, blackgrass; conditions: 0 to 100 scale; for Plant response rating, Blackgrass: 125 g ai/ha, 0 no effect, 100 complete control; for Blackgrass plant response rating: 500 g ai/ha, 0 is no effect, 100 is complete control
Outline: as §1

[10] = tested on: foxtail, giant (Setaria faberii); assay: Test A preemergence, giant foxtail; conditions: 0 to 100 scale, 0 is no effect, 100 is complete control
Outline: as §1

[11] = tested on: sedge, umbrella (small-flower umbrella sedge, Cyperus difformis); assay: Test B flooded paddy test, umbrella sedge; conditions: Flood, 250 g ai/ha, applied to paddy water, 2-leaf stage, visual evaluation after 13 to 15 d
Outline: as §2

kochia (Kochia scoparia) [12] = assay: Test A postemergence, kochia; conditions: 0 to 100 scale; for Plant response rating, Kochia: 125 g ai/ha, 0 no effect, 100 complete control; for Kochia plant response rating: 500 g ai/ha, 0 is no effect, 100 is complete control
Outline: as §1

[13] = tested on: ducksalad (Heteranthera limosa); assay: Test B flooded paddy test, ducksalad; conditions: Flood, 250 g ai/ha, applied to paddy water, 2-leaf stage, visual evaluation after 13 to 15 d
Outline: as §2

rice (Oryza sativa) = assay: Test B flooded paddy test, rice; conditions: Flood, 250 g ai/ha, applied to paddy water, 2-leaf stage, visual evaluation after 13 to 15 d
Outline: as §2

[14] = tested on: wheat (Triticum aestivum); assay: Test A postemergence, wheat; conditions: 0 to 100 scale; for Plant response rating, Wheat: 125 g ai/ha, 0 no effect, 100 complete control; for Wheat plant response rating: 500 g ai/ha, 0 is no effect, 100 is complete control
Outline: as §1

[15] = tested on: pigweed (Amaranthus retroflexus); assay: Test A preemergence, pigweed; conditions: 0 to 100 scale, 0 is no effect, 100 is complete control
Outline: as §1

kochia (Kochia scoparia) [16] = assay: Test A preemergence, kochia; conditions: 0 to 100 scale, 0 is no effect, 100 is complete control
Outline: as §1

[17] = tested on: ragweed (common ragweed, Ambrosia elatior); assay: Test A preemergence, ragweed; conditions: 0 to 100 scale, 0 is no effect, 100 is complete control
Outline: as §1

[18] = tested on: pigweed (Amaranthus retroflexus); assay: Test A postemergence, pigweed; conditions: 0 to 100 scale; for Plant response rating, Pigweed: 125 g ai/ha, 0 no effect, 100 complete control; for Pigweed plant response rating: 500 g ai/ha, 0 is no effect, 100 is complete control
Outline: as §1

Structure (SMILES) | Plant response rating, Foxtail, Giant [1] | Foxtail, Giant plant response rating [1] | Barnyardgrass plant response rating ([2]; 125 g ai/ha) | Barnyardgrass plant response rating ([2]; 500 g ai/ha) | Plant response rating, Ragweed [3] | Ragweed plant response rating [3] | Ryegrass, Italian plant response rating ([4]; 125 g ai/ha) | Ryegrass, Italian plant response rating ([4]; 500 g ai/ha) | Plant response rating, Barnyardgrass (0 to 100 scale, 0 is no effect, 100 is complete control) [5] | Plant response rating, Ryegrass, Italian [6] | Ryegrass, Italian plant response rating [6] | Plant response rating, Corn (corn (Zea mays)) | Corn plant response rating (corn (Zea mays)) | Plant response rating, Galium [7] | Galium plant response rating [7] | Plant response rating, Barnyardgrass [8] | Barnyardgrass plant response rating [8] | Plant response rating, Blackgrass [9] | Blackgrass plant response rating [9] | Foxtail, Giant plant response rating ([10]; 125 g ai/ha) | other results
CC[C@@H](Nc1ncc(C(F)(F)F)c(N)n1)c1cc2ccc(F)cc2s1 [Compound 48] | 10 | 30 | 0 | 40 | 20 | 70 | 0 | 60 | 0 | 0 | 40 | 0 | 30 | 60 | 90 | 0 | 30 | 30 | 30 | 60 | Foxtail, Giant plant response rating ([10]; 500 g ai/ha): 90; Plant response rating, Sedge, Umbrella (0 to 100 scale, 0 is no effect, 100 is complete control) [11]: 0; Plant response rating, Kochia (kochia (Kochia scoparia) [12]): 30; Kochia plant response rating (kochia (Kochia scoparia) [12]): 90; Plant response rating, Ducksalad (0 to 100 scale, 0 is no effect, 100 is complete control) [13]: 0; Plant response rating, Rice (0 to 100 scale, 0 is no effect, 100 is complete control) (rice (Oryza sativa)): 0; Plant response rating, Wheat [14]: 0; Wheat plant response rating [14]: 0; Pigweed plant response rating ([15]; 125 g ai/ha): 60; Pigweed plant response rating ([15]; 500 g ai/ha): 100; Kochia plant response rating (kochia (Kochia scoparia) [16]; 125 g ai/ha): 0; Kochia plant response rating (kochia (Kochia scoparia) [16]; 500 g ai/ha): 80; Ragweed plant response rating ([17]; 125 g ai/ha): 30; Ragweed plant response rating ([17]; 500 g ai/ha): 100; Plant response rating, Pigweed [18]: 90; Pigweed plant response rating [18]: 100
CC[C@H](Nc1ncc(C(F)(F)F)c(N)n1)c1cc2ccc(F)cc2s1 [Compound 49] | 0 | 10 | 0 | 0 | 0 | 0 | 0 | 0 | 0 | 0 | 0 | 0 | 0 | 0 | 0 | 0 | 0 | 0 | 0 | 0 | Foxtail, Giant plant response rating ([10]; 500 g ai/ha): 0; Plant response rating, Sedge, Umbrella (0 to 100 scale, 0 is no effect, 100 is complete control) [11]: 0; Plant response rating, Kochia (kochia (Kochia scoparia) [12]): 0; Kochia plant response rating (kochia (Kochia scoparia) [12]): 0; Plant response rating, Ducksalad (0 to 100 scale, 0 is no effect, 100 is complete control) [13]: 0; Plant response rating, Rice (0 to 100 scale, 0 is no effect, 100 is complete control) (rice (Oryza sativa)): 0; Plant response rating, Wheat [14]: 0; Wheat plant response rating [14]: 0; Pigweed plant response rating ([15]; 125 g ai/ha): 0; Pigweed plant response rating ([15]; 500 g ai/ha): 0; Kochia plant response rating (kochia (Kochia scoparia) [16]; 125 g ai/ha): 0; Kochia plant response rating (kochia (Kochia scoparia) [16]; 500 g ai/ha): 0; Ragweed plant response rating ([17]; 125 g ai/ha): 0; Ragweed plant response rating ([17]; 500 g ai/ha): 0; Plant response rating, Pigweed [18]: 0; Pigweed plant response rating [18]: 50
